Measured values published in article PMC8222254, “Self-assembly of an anion receptor with metal-dependent kinase inhibition and potent in vitro anti-cancer properties” (Nature Communications, 2021).
“And” between values parts separate entries of the source, which are not always exact repeats. Equal entries are not always repeated.

How the values were obtained:
Assay in all cases: Kinase inhibition screen, cell-free 33P ATP assay at 10 μM
Assay type in all cases: biochemical
[1] = biological target: 140 purified human kinases (Homo sapiens, UniProt P05129); conditions: PKCγ
Procedure: (§1) [L2Cu3]^6+ and [L2Zn3]^6+ were submitted to the MRC Protein Phosphorylation and Ubiquitination Unit International Centre for Kinase Profiling (University of Dundee) and tested in duplicate (at 10 μM) against a series of 140 purified human kinases in a cell-free kinase assay using ^33P ATP[55],[56]. The kinase gene IDs from the screen were then translated into common IDs (HGNC symbol) using biomaRt package[57],[58] in R[59] and R Studio[60] and used as input to the KinMap programme.

[2] = biological target: T1, 140 purified human kinases (Homo sapiens, UniProt Q7L7X3)
T1 sequence (Q7L7X3 1-1001): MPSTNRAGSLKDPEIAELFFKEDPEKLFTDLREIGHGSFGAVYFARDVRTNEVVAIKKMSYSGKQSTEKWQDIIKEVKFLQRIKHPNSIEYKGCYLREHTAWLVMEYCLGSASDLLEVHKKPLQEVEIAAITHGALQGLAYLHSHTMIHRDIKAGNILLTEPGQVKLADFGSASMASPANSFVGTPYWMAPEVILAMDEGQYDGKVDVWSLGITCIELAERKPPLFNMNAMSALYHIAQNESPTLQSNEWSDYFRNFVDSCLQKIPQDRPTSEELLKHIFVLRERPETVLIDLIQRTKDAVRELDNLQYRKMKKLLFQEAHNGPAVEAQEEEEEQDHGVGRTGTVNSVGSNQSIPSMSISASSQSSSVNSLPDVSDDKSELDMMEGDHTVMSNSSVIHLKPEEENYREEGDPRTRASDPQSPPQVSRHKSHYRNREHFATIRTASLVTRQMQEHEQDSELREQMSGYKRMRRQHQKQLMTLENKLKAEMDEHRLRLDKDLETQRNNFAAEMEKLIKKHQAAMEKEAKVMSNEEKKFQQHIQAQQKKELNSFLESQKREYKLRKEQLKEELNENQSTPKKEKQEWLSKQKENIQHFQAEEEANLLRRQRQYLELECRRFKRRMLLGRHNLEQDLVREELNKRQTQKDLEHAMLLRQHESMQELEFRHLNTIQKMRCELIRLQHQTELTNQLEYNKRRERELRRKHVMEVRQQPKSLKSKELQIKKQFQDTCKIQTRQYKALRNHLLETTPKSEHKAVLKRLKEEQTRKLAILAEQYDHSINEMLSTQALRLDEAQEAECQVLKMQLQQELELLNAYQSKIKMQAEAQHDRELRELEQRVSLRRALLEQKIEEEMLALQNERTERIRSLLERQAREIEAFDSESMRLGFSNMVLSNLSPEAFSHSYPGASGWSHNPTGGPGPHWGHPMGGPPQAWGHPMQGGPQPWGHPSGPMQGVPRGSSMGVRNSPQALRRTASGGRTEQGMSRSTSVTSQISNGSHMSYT
Procedure: as §1

[3] = biological target: 140 purified human kinases (Homo sapiens, UniProt Q86V86)
Procedure: as §1

[4] = biological target: T2, 140 purified human kinases (Homo sapiens, UniProt Q8IVH8)
T2 sequence (Q8IVH8 1-894): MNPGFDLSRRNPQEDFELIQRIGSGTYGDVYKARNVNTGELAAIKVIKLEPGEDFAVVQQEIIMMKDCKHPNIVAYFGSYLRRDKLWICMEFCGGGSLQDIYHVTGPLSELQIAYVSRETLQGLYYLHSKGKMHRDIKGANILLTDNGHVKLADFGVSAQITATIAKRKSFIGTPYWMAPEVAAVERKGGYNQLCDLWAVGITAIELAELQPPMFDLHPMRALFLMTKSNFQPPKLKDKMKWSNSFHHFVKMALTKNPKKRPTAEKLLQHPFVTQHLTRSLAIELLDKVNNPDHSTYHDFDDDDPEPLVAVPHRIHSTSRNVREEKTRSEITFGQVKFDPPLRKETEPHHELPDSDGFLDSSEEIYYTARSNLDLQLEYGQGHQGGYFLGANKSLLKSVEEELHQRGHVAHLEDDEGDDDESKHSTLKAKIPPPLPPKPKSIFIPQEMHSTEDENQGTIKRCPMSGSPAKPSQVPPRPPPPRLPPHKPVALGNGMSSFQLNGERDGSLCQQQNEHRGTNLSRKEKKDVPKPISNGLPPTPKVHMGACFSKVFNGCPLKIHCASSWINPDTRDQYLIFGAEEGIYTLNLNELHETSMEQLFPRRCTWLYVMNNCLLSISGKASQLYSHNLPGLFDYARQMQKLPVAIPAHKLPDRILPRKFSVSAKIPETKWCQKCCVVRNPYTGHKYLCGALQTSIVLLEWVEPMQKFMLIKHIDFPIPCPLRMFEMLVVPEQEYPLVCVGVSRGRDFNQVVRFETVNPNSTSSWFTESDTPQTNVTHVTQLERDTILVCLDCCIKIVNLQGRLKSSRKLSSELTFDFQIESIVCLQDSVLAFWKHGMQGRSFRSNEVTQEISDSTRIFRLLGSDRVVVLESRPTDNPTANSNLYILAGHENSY
Procedure: as §1

[Cu+2].[Cu+2].[Cu+2].c1ccc(-c2csc(NCCN(CCNc3nc(-c4ccccn4)cs3)CCNc3nc(-c4ccccn4)cs3)n2)nc1.c1ccc(-c2csc(NCCN(CCNc3nc(-c4ccccn4)cs3)CCNc3nc(-c4ccccn4)cs3)n2)nc1 [[L2Cu3]6+]
% Inhibition Run 1 [1]: 58.1% | % Inhibition Run 2 [1]: 72% | % Inhibition, Mean [1]: 65% | mean % activity [1]: 35% | % activity ([1]; Run 1): 41.9% | % activity ([1]; Run 2): 28% | % Activation, Mean value ([2]; TAO1): 10% | % Inhibition Run 1 ([2]; TAO1): -6.6% | % Inhibition Run 2 ([2]; TAO1): -13.8% | % Inhibition, Mean ([2]; TAO1): -10% | mean % activity ([2]; TAO1): 110% | % activity ([2]; TAO1, Run 1): 106.6% | % activity ([2]; TAO1, Run 2): 113.8% | % Activity Run 1 ([2]; TAO1, 10 µM): 106.60% | % Activity Run 2 ([2]; TAO1, 10 µM): 113.80% | % Inhibition Run 1 ([3]; PIM3): 54.7% | % Inhibition Run 2 ([3]; PIM3): 54.9% | % Inhibition, Mean ([3]; PIM3): 55% | mean % activity ([3]; PIM3): 45% | % activity ([3]; PIM3, Run 1): 45.3% | % activity ([3]; PIM3, Run 2): 45.1% | % Inhibition Run 1 ([4]; MAP4K3): 72.4% | % Inhibition Run 2 ([4]; MAP4K3): 85.5% | % Inhibition, Mean ([4]; MAP4K3): 79% | mean % activity ([4]; MAP4K3): 21% | % activity ([4]; MAP4K3, Run 1): 27.6% | % activity ([4]; MAP4K3, Run 2): 14.5%

CC(=O)[O-].CC(=O)[O-].CC(=O)[O-].CC(=O)[O-].CC(=O)[O-].CC(=O)[O-].[Zn+2].[Zn+2].[Zn+2].c1ccc(-c2csc(NCCN(CCNc3nc(-c4ccccn4)cs3)CCNc3nc(-c4ccccn4)cs3)n2)nc1.c1ccc(-c2csc(NCCN(CCNc3nc(-c4ccccn4)cs3)CCNc3nc(-c4ccccn4)cs3)n2)nc1 [[L2Zn3]6+]
% Inhibition, Mean [1]: 32% | % Inhibition, Run 1 / Run 2 [1]: 36% and 27% | mean % activity [1]: 68% | % activity ([1]; duplicate runs): 64% and 73% | % Activation, Mean value ([2]; TAO1): 8% | % Inhibition, Mean ([2]; TAO1): -8% | mean % activity ([2]; TAO1): 108% | % activity ([2]; TAO1, duplicate runs): 93% and 122% | % Inhibition, Mean ([3]; PIM3): 36% | % Inhibition, Run 1 / Run 2 ([3]; PIM3): 38% and 35% | mean % activity ([3]; PIM3): 64% | % activity ([3]; PIM3, duplicate runs): 62% and 65% | % Inhibition, Mean ([4]; MAP4K3): 45% | % Inhibition, Run 1 / Run 2 ([4]; MAP4K3): 48% and 43% | mean % activity ([4]; MAP4K3): 55% | % activity ([4]; MAP4K3, duplicate runs): 52% and 58%
